Results: patent publication US20230220331A1, “TEMPORARY TREATMENT MEDIUM, TREATMENT KIT, EMBRYOGENESIS ARREST INHIBITOR, EMBRYOGENESIS ARREST INHIBITORY METHOD, DEVELOPMENTAL ENGINEERING PRODUCT PREPARATION METHOD, TRANSPLANTATION METHOD, THERAPEUTIC METHOD, AND DEVELOPMENTAL ENGINEERING PRODUCT” (priority 2020, published 2023)

Columns and labels:
[1] = test system: Early embryos of the heterologous inbred SPR2 mouse; test: ES cell establishment from electroporated early embryos (Treatment Example 4); format: cell-based, Mus spretus; conditions: SPR2 early embryos cultured in Y-27632 medium, then electroporated
Experimental: (§1) 1. Up to 3 hours before TAKE, Y-27632-added mWM medium (Y-27632 final concentration 10 μM, an example of the “temporary treatment medium” of this example), Y-27632-free mWM medium (an example of “normal medium” of this example) were dropped into 35 mm Petri dishes by 5 drops, respectively, to prepare drops covered with paraffin oil.
(§2) 2. Two-cell stage embryos were collected from the drops or thawed, placed in Y-27632-added mWM medium, and cultured for about 30 minutes to 1 hour (temporary treatment).
(§3) 3. After that, TAKE was performed.
(§4) 4. After TAKE, the embryos were placed in Y-27632-added mWM medium and cultured for about 30 minutes to 1 hour (temporary treatment). Then, the embryos were placed in Y-27632-free mWM medium and cultured at 37° C. under 5% CO2 and 5% O2 conditions until transplantation.
(§5) 5. Then, if necessary, the culture was continued in the Y-27632-free mWM medium to establish ES cells.
(§6) When Mus caroli ES cells were knocked out of the Tyr gene by genome editing and a part of them was analyzed, it was shown that NHEJ occurred and heterologous mouse ES cells were established.

[2] = test system: Early embryos of the heterologous mouse Mus caroli; test: as above; format: cell-based; conditions: Mus caroli early embryos cultured in Y-27632 medium, then electroporated
Experimental: as §1, §2, §3, §4, §5, §6

[3] = test system: pig fertilized embryos that had undergone in vitro maturation and in vitro fertilization with frozen semen; test: Development of electroporated pig IVM/IVF embryos (Treatment Example 5); format: cell-based
Experimental: 1. On the day before TAKE, 5 drops of Y-27632-added PZM-5 medium (Y-27632 final concentration 10 μM, an example of the “temporary treatment medium” of this example) was dropped on a 35 mm Petri dish to prepare a drop coated with paraffin oil. In the drop of this example, 20 μL of medium was added dropwise, 1 mL of oil was added, then 20 μL of medium was added again, and the mixture was completely covered with oil. This drop produced twice as many as the TAKE.
2. IVF was performed based on a method common to those skilled in the art.
3. On the day after fertilization, IVF embryos were placed in Y-27632-added PZM-5 medium and cultured for about 30 minutes to 1 hour (temporary treatment).
4. After that, TAKE was performed.
5. The embryos were returned to Y-27632-free PZM-5 medium (an example of the “normal medium” of this example) and cultured under the conditions of 39° C., 5% CO2, and 5% O2.
6. If necessary, sampling, or the like, was performed at the development stage. If the culture is to be continued until the blastocyst stage, the drops containing Y-27632-free PZM-5 medium and PBM medium was made in the same way as the step of “1.” at four days after insemination.
7. […]
In addition, the effect of the temporary treatment medium of this example was measured on pig fertilized embryos that had undergone in vitro maturation and in vitro fertilization with frozen semen.

[4] = test system: frozen embryos of C57BL/6J; test: Recovery of re-frozen and re-thawed blastocysts, cytochalasin B vs Y-27632 (Treatment Example 10); format: cell-based, mouse; conditions: 10 μM in mWM; 19 embryos
Experimental: In this treatment example, as in the above-mentioned treatment example 9, the normal medium (hereinafter, referred to as “Y− medium” as in the treatment example 9), the temporary treatment medium to which Y-27632 is added (hereinafter, referred to as “Y+ medium” as in the treatment example 9), and a CB-added medium (hereinafter, referred to as “CB+ medium”) were used. The concentrations of CB in the CB+ medium were 5 μM and 10 μM are prepared. As the manipulation, the recovery rates when frozen embryos were thawed and developed, then re-frozen in blastocysts and re-thawed were compared.
For the treatment, 107 frozen embryos of C57BL/6J (provided from CLEA Japan, Inc.) at the 2-cell stage were used. Firstly, the frozen embryos at the 2-cell stage were thawed and blastocysts were developed as they were in a normal medium.
Then, the blastocysts were then transferred to each of the above media and placed for 30 minutes. Then, the embryos were transferred to Y− medium again and placed for 30 minutes.
Then, each embryo was frozen.
Then, the embryos were then thawed and placed in M2 medium for 10 minutes.
Then, each embryo was evenly divided and placed on the medium for 1 hour.
The embryos were observed by returning to the Y− medium again. This observation was performed immediately after thawing, 3 hours later, and 24 hours later.

[5] = test system: Wistar-Imamichi and WKY rat embryos; test: Klotho (40 kbp) large deletion knockout rats by electroporation (Treatment Example 13); format: cell-based; conditions: for large deletion (proportion of individuals) / large deletion (%): Klotho
Experimental: In the Wistar-Imamichi line, which are similar to the inbred line, and the inbred WKY line, when the Klotho gene (40 kbp), of which whole gene could not normally be deleted, were knocked out by electroporation, the temporarily treatment is processed as similar to Example 1 as described above. Specifically, before and after electroporation, 1 hour of temporary treatment, 24 hours of culture in the normal medium (waiting period), and 1 hour of temporary treatment were performed.

[6] = test system: NOD-scid Bbox1, IL2RG double knock-out mice; test: Passage efficiency of mice prepared by using Y-27632 (Treatment Example 20); format: in vivo, mouse
Source text: The double knock-out mice of IL2RG gene and the Bbox1 gene by using the NOD-scid mice in the above-mentioned treatment example 14 were mated with each other, and it was examined whether or not the newborn mouse was affected by Y-27632.

[7] = Wistar-Imamichi, HIGH CONCENTRATION
[8] = Wistar-Imamichi, 164 transferred embryos
[9] = Wistar-Imamichi, LOW CONCENTRATION
[10] = NOG-Bbox1, generation F1, 3 pregnancies
[11] = NOG-Bbox1, generation F2, 8 pregnancies

C[C@@H](N)[C@H]1CC[C@H](C(=O)Nc2ccncc2)CC1 [Y-27632, trans-4-[(1R)-1-Aminoethyl]-N-4-pyrid inylcyclohexanecarboxamide]
ES cells established [1]: at a high rate | ES cells established [2]: at a high rate | 2-cell stage embryos developed into late blastocysts (proportion) [3]: 35 out of 123 | RECOVERY RATE about 3 hours later [4]: 94% | RECOVERY RATE about 24 hours later [4]: 89% | RECOVERY RATE immediately after thawing [4]: 36% | number of embryos ABOUT 3 HOURS LATER [4]: 18 | number of embryos ABOUT 24 HOURS LATER [4]: 17 | number of embryos IMMEDIATELY AFTER THAWING [4]: 7 | large deletion (proportion of individuals) ([5]; WKY, high concentration, many pulses, 15 transferred embryos): 2/3 | large deletion (%) ([5]; WKY, high concentration, many pulses, listed as +Y): (66%) | large deletion (%) ([5]; WKY, high concentration, many pulses, listed as Y): 66.6% | KLOTHO LARGE DELETION HETERO % [5, 7]: 41.3% | KLOTHO LARGE DELETION HOMO % [5, 7]: 23.2% | NUMBER OF INDIVIDUALS, KLOTHO LARGE DELETION HETERO [5, 7]: 19/46 | NUMBER OF INDIVIDUALS, KLOTHO LARGE DELETION HOMO [5, 7]: 10/46 | large deletion (%) [5, 8]: (63%) | large deletion (proportion of individuals) [5, 8]: 29/46 | KLOTHO LARGE DELETION HETERO % [5, 9]: 16.6% | KLOTHO LARGE DELETION HOMO % [5, 9]: 0% | NUMBER OF INDIVIDUALS, KLOTHO LARGE DELETION HETERO [5, 9]: 3/18 | NUMBER OF INDIVIDUALS, KLOTHO LARGE DELETION HOMO [5, 9]: 0/18 | ave. litter size ([6]; NOG-Bbox1, generation F1): (7.7/preg.) | Total pups [6, 10]: 23 | female pups [6, 10]: 13 | male pups [6, 10]: 10 | ave. litter size ([6]; NOG-Bbox1, generation F2): (6.8/preg.) | Total pups [6, 11]: 54 | female pups [6, 11]: 25 | male pups [6, 11]: 29 | effect on mouse passage and phenotype ([6]; offspring of mice produced with Y-27632 treated embryos): did not affect mouse passage and phenotype
